These results are taken from patent US20240327408A1, “COMPOUNDS CONTAINING TETRAHYDRONAPHTHYRIDINONE OR TETRAHYDROPYRIDOPYRIMIDINONE SKELETON, PREPARATION METHOD THEREFOR AND PHARMACEUTICAL USE THEREOF” (CHINA PHARMACEUTICAL UNIVERSITY, priority 2021, published 2024).

One assay concerns the target T1, hClpP (Homo sapiens, UniProt Q16740).
T1 construct: made in house
The assay is described as follows: activating ClpP hydrolysis of FITC-casein (fluorescence kinetic detection). It counts as biochemical. Conditions: hClpP 1 μM, FITC-Casein 4 μM, 37° C. The method in brief:
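hClpP at 1 μM final preincubated with compounds (assay-buffer dilutions 200 μM–2 nM, before mixing) 30 min at 37 °C, then 4 μM final FITC-casein added. Fluorescence read kinetically at 37 °C every 1 min for 15 min, duplicate wells.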

The subject of another assay is MV4; 11 cells. The assay is described as follows: inhibiting the growth of MV4; 11 cells. In kind it is cell-based. Conditions: Homo sapiens.
The subject of assay [1] is xenograft solid tumor models such as colon cancer, breast cancer, and brain tumors. Conditions: Oncotarget 2016, 7, 74380-74392; cited from earlier work.

T1 sequence (Q16740 57-277): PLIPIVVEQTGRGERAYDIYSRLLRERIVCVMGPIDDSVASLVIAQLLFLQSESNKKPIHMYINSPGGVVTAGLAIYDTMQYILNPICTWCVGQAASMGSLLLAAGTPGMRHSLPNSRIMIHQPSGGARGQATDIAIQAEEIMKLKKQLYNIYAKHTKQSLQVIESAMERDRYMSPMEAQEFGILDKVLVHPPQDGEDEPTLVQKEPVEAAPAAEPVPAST

As usually defined, the EC50 is the midpoint of the concentration-response curve. Read a high EC50 as lower potency in that assay. A word on the IC50: it is the concentration that inhibits the measured activity by half. Read a low IC50 as inhibition by little substance. Turning to `N#Cc1cccc(CN2CCc3c(c(=O)n(Cc4ccc(C(F)(F)F)cc4)c4ccnn34)C2)c1` [Compound I-160, 4-(4-trifluoromethylbenzyl)-7-(3-cyanobenzyl)-6,7,8,9-tetrahydropyrazolo[1,5-a]pyrido[3,4-e]pyrimidine-5(4H)-one], the EC50 on hClpP is 1000 to 10000 nM. In the assay with MV4; 11 cells, the half-maximal inhibitory concentration (IC50) is 1000 to 10000 nM.
In turn, `O=c1c2c(n3nccc3n1Cc1ccc(Cl)cc1)CCN(Cc1ccccc1)C2` [Compound I-161, 4-(4-chlorobenzyl)-7-benzyl-6,7,8,9-tetrahydropyrazolo[1,5-a]pyrido[3,4-e]pyrimidine-5(4H)-one] came in with an EC50 at hClpP of 1000 to 10000 nM. Further, in the assay on MV4; 11 cells, the IC50 was in the range of 1000 to 10000 nM.
As for `O=c1c2c(n3nccc3n1Cc1ccc(Cl)cc1)CCN(Cc1cccc(Cl)c1)C2` [Compound I-162, 4-(4-chlorobenzyl)-7-(3-chlorobenzyl)-6,7,8,9-tetrahydropyrazolo[1,5-a]pyrido[3,4-e]pyrimidine-5(4H)-one], the EC50 on hClpP was 1000 to 10000 nM. Further, the 50% inhibitory concentration (IC50) in the assay on MV4; 11 cells was in the range of 1000 to 10000 nM.
For the compound `N#Cc1cccc(CN2CCc3c(c(=O)n(Cc4ccc(Cl)cc4)c4ccnn34)C2)c1` [Compound I-163, 4-(4-chlorobenzyl)-7-(3-cyanobenzyl)-6,7,8,9-tetrahydropyrazolo[1,5-a]pyrido[3,4-e]pyrimidine-5(4H)-one], on hClpP, the EC50 was in the range of 1000 to 10000 nM. This compound came in with an IC50 in the assay on MV4; 11 cells of 1000 to 10000 nM.
The compound `O=c1c2c(n3cncc3n1Cc1ccc(C(F)(F)F)cc1)CCN(Cc1ccccc1)C2` [Compound I-164, 7-benzyl-4-(4-trifluoromethylbenzyl)-6,7,8,9-tetrahydroimidazo[1,5-a]pyrido[3,4-e]pyrimidine-5(4H)-one] had an EC50 on hClpP of 1000 to 10000 nM. This compound also showed an IC50 in the assay on MV4; 11 cells of 1000 to 10000 nM.
On hClpP, `N#Cc1cccc(CN2CCc3c(c(=O)n(Cc4ccc(C(F)(F)F)cc4)c4cncn34)C2)c1` [Compound I-165, 7-(3-cyanobenzyl)-4-(4-trifluoromethylbenzyl)-6,7,8,9-tetrahydroimidazo[1,5-a]pyrido[3,4-e]pyrimidine-5(4H)-one] had a concentration for a half-maximal effect (EC50) of 1000 to 10000 nM. The IC50 with MV4; 11 cells lay within 1000 to 10000 nM.
As to `O=c1c2c(n3cncc3n1Cc1ccc(Cl)cc1)CCN(Cc1cccc(Cl)c1)C2` [Compound I-166, 7-(3-chlorobenzyl)-4-(4-chlorobenzyl)-6,7,8,9-tetrahydroimidazo[1,5-a]pyrido[3,4-e]pyrimidine-5(4H)-one], the EC50 at hClpP fell in the range of 1000 to 10000 nM. Moreover, the IC50 with MV4; 11 cells is 1000 to 10000 nM.
As for `N#Cc1cccc(CN2CCc3c(c(=O)n(Cc4ccc(Cl)cc4)c4cncn34)C2)c1` [Compound I-167, 7-(3-cyanobenzyl)-4-(4-chlorobenzyl)-6,7,8,9-tetrahydroimidazo[1,5-a]pyrido[3,4-e]pyrimidine-5(4H)-one], the EC50 at hClpP is 1000 to 10000 nM. The compound further yielded an IC50 in the assay on MV4; 11 cells of 1000 to 10000 nM.
At hClpP, `O=c1c2c(n3cccc3n1Cc1ccc(C(F)(F)F)cc1)CCN(Cc1ccccc1)C2` [Compound I-168, 3-benzyl-6-(4-trifluoromethylbenzyl)-1,2,3,4-tetrahydropyrido[3,4-e]pyrrolo[1,2-a]pyrimidine-5(6H)-one] yielded an EC50 of less than 1000 nM. The IC50 in the assay with MV4; 11 cells was less than 1000 nM.
For the compound `O=c1c2c(n3cccc3n1Cc1ccc(Cl)cc1)CCN(Cc1cccc(Cl)c1)C2` [Compound I-169, 3-(3-chlorobenzyl)-6-(4-chlorobenzyl)-1,2,3,4-tetrahydropyrido[3,4-e]pyrrolo[1,2-a]pyrimidine-5(6H)-one], at hClpP, the EC50 is less than 1000 nM. The same compound gave an IC50 in the assay on MV4; 11 cells of less than 1000 nM.
For the compound `Cc1ccccc1CN1C(=O)C2=C(CCN(Cc3ccccc3)C2)N2CCN=C12` [ONC201, reference compound], the IC50 in the assay on MV4; 11 cells was in the range of 100 to 10000 nM. For the same compound, in assay [1], the “tumor regression in xenograft solid tumor models” value was “cause tumor regression”.
